Measurements reported in ChEMBL document CHEMBL4002573, “New insights into the SAR and drug combination synergy of 2-(quinolin-4-yloxy)acetamides against Mycobacterium tuberculosis” (Eur J Med Chem, 2017).
In brackets after ≈: the same amount, converted by molar mass.

Assays:
Cytochrome P450 1A2 = biological target: T1, Cytochrome P450 1A2 (Homo sapiens, UniProt P05177); experiment: Inhibition of CYP1A2 in human liver microsomes using phenacetin as substrate by HPLC-MS/MS method; assay type: ADME
T1 sequence (P05177 whole entry): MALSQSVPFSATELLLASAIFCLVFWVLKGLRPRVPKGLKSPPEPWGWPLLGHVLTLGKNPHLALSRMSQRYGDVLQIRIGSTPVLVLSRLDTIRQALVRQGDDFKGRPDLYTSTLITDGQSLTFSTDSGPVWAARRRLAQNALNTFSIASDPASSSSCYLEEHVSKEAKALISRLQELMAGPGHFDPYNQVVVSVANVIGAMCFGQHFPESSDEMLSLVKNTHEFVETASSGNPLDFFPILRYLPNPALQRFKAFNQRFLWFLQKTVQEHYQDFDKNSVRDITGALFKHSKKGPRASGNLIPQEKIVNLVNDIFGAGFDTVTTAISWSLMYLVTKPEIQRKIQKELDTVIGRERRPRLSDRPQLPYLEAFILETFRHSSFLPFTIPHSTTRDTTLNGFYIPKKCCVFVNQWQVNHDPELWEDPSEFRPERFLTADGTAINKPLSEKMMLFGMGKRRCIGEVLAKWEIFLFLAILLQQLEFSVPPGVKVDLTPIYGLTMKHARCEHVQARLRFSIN

[1] = Half life in human liver S9 fraction at 2 uM by HPLC-MS/MS analysis; assay type: ADME, tissue-based
[2] = Cytotoxicity against mouse N9 cells assessed as viability at 10 uM after 72 hrs by MTT assay relative to control; assay type: cell-based; details: read-out: Activity
[3] = Kinetic solubility in water at pH 5.8; assay type: physicochemical; details: read-out: Kinetic_solubility
[4] = system: Mycobacterium tuberculosis; assay type: functional; details: H37Rv, 168 h
[5] = system: Mycobacterium tuberculosis; assay type: functional; details: H37Rv, 168 h; remark: listed apart in the source
[6] = system: Mycobacterium tuberculosis; experiment: microbe, parasite or virus in culture; details: CDCT-4 (1105/09), 168 h
Description: Antimycobacterial activity against Mycobacterium tuberculosis CDCT-4 (1105/09) clinical isolate after 7 days by resazurin reduction microplate assay

[7] = Kinetic solubility in PBS at pH 7.4; assay type: physicochemical; details: read-out: Kinetic_solubility
Cytochrome P450 2C19 = Cytochrome P450 2C19 (Homo sapiens, UniProt P33261); experiment: Inhibition of CYP2C19 in human liver microsomes using S-(+)-mephenytoin as substrate by HPLC-MS/MS method; assay type: ADME
Cytochrome P450 2C19, sequence (P33261 whole entry): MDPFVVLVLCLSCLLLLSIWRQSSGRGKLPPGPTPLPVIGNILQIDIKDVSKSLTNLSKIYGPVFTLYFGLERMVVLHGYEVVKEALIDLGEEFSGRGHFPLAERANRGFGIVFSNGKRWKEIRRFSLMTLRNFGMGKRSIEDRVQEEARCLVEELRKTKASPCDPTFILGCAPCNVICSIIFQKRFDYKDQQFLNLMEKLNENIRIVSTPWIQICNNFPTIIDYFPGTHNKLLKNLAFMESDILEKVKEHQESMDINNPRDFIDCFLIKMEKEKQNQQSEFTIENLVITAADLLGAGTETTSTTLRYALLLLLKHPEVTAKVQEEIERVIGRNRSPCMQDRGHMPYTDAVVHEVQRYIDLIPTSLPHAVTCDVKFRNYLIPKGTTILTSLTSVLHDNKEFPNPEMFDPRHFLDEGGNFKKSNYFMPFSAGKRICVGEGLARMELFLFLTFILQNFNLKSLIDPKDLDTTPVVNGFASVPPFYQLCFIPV

Cytochrome P450 2D6 = Cytochrome P450 2D6 (Homo sapiens, UniProt P10635); experiment: Inhibition of CYP2D6 in human liver microsomes using dextromethorphan as substrate by HPLC-MS/MS method; assay type: ADME
Cytochrome P450 2D6, sequence (P10635 whole entry): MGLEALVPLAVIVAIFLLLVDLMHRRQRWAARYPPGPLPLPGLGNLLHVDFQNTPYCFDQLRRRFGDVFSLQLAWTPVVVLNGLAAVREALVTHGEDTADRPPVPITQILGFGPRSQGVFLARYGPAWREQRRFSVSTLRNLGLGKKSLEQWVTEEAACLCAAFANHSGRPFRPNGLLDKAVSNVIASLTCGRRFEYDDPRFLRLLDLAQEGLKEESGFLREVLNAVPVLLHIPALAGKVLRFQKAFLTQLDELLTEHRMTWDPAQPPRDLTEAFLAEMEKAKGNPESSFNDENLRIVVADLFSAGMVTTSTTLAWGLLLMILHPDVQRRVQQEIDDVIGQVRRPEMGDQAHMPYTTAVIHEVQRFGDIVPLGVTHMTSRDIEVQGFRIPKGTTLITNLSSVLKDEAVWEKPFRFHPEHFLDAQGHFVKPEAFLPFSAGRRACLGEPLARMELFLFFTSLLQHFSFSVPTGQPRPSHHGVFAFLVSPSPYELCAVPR

[8] = Thermodynamic solubility of the compound in 0.1N HCl at pH 1.5 after 24 hrs by HPLC method; assay type: physicochemical; details: read-out: Therm_solubility
[9] = Cytotoxicity against African green monkey Vero cells assessed as viability at 10 uM after 72 hrs by MTT assay relative to control; assay type: cell-based; details: chlorocebus sabaeus, read-out: Activity
[10] = Intrinsic clearance in human liver S9 fraction at 2 uM by HPLC-MS/MS analysis; assay type: ADME, tissue-based
[11] = system: Mycobacterium tuberculosis; assay type: functional; details: H37Rv, 168 h; remark: listed apart in the source
[12] = system: Mycobacterium tuberculosis; assay type: functional; details: H37Rv, 168 h; remark: listed apart in the source
[13] = Cytotoxicity against human HepG2 cells assessed as viability at 10 uM after 72 hrs by MTT assay relative to control; assay type: cell-based; details: read-out: Activity
Cytochrome P450 3A4 = Cytochrome P450 3A4 (Homo sapiens, UniProt P08684); experiment: Inhibition of CYP3A4 in human liver microsomes using testosterone as substrate by HPLC-MS/MS method; assay type: ADME
Cytochrome P450 3A4, sequence (P08684 whole entry): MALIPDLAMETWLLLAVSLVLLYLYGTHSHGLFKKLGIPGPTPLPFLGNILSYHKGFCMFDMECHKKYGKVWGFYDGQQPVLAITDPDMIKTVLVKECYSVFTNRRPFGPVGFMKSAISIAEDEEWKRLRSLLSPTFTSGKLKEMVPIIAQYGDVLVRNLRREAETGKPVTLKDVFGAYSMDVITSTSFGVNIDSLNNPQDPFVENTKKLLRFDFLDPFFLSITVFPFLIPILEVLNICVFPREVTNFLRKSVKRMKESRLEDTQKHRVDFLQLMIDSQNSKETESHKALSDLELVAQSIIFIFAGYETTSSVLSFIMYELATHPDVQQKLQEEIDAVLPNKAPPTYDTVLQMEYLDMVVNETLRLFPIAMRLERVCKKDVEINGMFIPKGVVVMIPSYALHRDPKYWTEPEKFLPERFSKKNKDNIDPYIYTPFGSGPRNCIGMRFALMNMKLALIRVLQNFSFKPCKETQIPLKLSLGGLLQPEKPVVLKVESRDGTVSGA

[14] = system: Mycobacterium tuberculosis; experiment: Bactericidal activity against Mycobacterium tuberculosis H37Rv infected in mouse RAW264.7 cells assessed as bacterial colony formation at 5 uM after 5 days (reference value: 4.1 to 4.73 log10CU); assay type: functional
Cytochrome P450 2C9 = Cytochrome P450 2C9 (Homo sapiens, UniProt P11712); experiment: Inhibition of CYP2C9 in human liver microsomes using tolbutamide as substrate by HPLC-MS/MS method; assay type: ADME
Cytochrome P450 2C9, sequence (P11712 whole entry): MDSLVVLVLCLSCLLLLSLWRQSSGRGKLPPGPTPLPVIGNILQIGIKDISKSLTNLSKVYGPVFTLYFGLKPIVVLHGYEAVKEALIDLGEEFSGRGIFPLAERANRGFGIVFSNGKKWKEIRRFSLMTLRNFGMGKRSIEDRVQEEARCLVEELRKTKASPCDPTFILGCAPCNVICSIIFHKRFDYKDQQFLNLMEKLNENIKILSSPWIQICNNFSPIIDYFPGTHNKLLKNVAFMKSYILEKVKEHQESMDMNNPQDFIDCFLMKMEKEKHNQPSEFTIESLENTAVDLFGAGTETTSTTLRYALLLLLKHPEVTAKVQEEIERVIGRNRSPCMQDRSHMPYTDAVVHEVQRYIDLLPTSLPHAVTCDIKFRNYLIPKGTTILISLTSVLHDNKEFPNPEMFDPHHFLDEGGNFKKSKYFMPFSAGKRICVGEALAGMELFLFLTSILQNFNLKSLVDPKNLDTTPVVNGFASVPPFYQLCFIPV

Cytochrome P450 2E1 = Cytochrome P450 2E1 (Homo sapiens, UniProt P05181); experiment: Inhibition of CYP2E1 in human liver microsomes using chlorzoxazone as substrate by HPLC-MS/MS method; assay type: ADME
Cytochrome P450 2E1, sequence (P05181 whole entry): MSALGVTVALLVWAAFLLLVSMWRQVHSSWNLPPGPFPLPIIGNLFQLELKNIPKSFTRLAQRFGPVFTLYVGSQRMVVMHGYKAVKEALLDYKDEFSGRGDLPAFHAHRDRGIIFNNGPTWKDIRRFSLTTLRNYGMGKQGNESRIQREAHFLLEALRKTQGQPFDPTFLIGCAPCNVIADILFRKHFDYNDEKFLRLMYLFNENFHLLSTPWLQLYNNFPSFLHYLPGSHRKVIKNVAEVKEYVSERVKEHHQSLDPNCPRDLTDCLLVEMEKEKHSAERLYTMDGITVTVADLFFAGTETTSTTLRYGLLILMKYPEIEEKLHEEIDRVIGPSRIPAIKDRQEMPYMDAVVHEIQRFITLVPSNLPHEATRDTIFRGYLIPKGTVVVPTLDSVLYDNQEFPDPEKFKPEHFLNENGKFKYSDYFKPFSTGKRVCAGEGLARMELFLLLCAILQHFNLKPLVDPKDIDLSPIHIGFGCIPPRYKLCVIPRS

[15] = system: Mycobacterium tuberculosis; assay type: functional, H37Rv
[16] = system: Mycobacterium tuberculosis; assay type: functional; details: H37Rv, 168 h; remark: listed apart in the source
[17] = Cytotoxicity against mouse RAW264.7 cells assessed as viability at 10 uM after 72 hrs by MTT assay relative to control; assay type: cell-based; details: read-out: Activity
[18] = system: Mycobacterium tuberculosis; experiment: Potency index, ratio of isoniazid MIC to test compound MIC for Mycobacterium tuberculosis H37Rv; assay type: functional
[19] = Permeability of the compound at 1 uM […] by PAMPA; assay type: physicochemical; details: read-out: permeability
[20] = system: Mycobacterium tuberculosis; experiment: microbe, parasite or virus in culture; details: PE-003, 168 h
Description: Antimycobacterial activity against Mycobacterium tuberculosis PE-003 clinical isolate after 7 days by resazurin reduction microplate assay

[21] = Thermodynamic solubility of the compound in acetate buffer at pH 4 after 24 hrs by HPLC method; assay type: physicochemical; details: read-out: Therm_solubility
[22] = system: Mycobacterium tuberculosis; assay type: functional; details: H37Rv, 168 h; remark: listed apart in the source
[23] = system: Mycobacterium tuberculosis; experiment: Potency index, ratio of moxifloxacin MIC to test compound MIC for Mycobacterium tuberculosis PE-003 clinical isolate; assay type: functional
[24] = system: Mycobacterium tuberculosis; experiment: microbe, parasite or virus in culture; details: H37Rv, 168 h
Description: Antimycobacterial activity against Mycobacterium tuberculosis H37Rv after 7 days by resazurin reduction microplate assay

[25] = Cytotoxicity against human HaCaT cells assessed as viability at 10 uM after 72 hrs by MTT assay relative to control; assay type: cell-based; details: read-out: Activity

## CCCCCc1ccc(NC(=O)COc2cc(C)nc3ccc(OC)cc23)cc1
Cytochrome P450 1A2
  IC50: > 30 µM
[1]
  half-life at 2 µM: 19.4 min
[2]
  viability at 72 h, 10 µM: 110%
[3]
  solubility kinetic: 2.6 µM (≈ 1.02 µg/mL)
[4]
  MIC: 10 ng/mL (≈ 0.0255 µM)
[5]
  MIC: 10 ng/mL (≈ 0.0255 µM)
[6]
  MIC: < 0.05 µM
[7]
  solubility kinetic: 4.7 µM (≈ 1.84 µg/mL)
Cytochrome P450 2C19
  IC50: > 30 µM
Cytochrome P450 2D6
  IC50: > 30 µM
[8]
  solubility thermodynamic at 24 h: 30 µM (≈ 11.8 µg/mL)
[9]
  viability at 72 h, 10 µM: 97%
[10]
  CLhep predicted at 2 µM: 14.8 mL/min/kg
[11]
  MIC: 2.5 ng/mL (≈ 0.00637 µM)
[12]
  MIC: 5 ng/mL (≈ 0.0127 µM)
[13]
  viability at 72 h, 10 µM: 83%
Cytochrome P450 3A4
  IC50: > 30 µM
[14]
  Activity: 3.23 log10CFU
Cytochrome P450 2C9
  IC50: > 30 µM
Cytochrome P450 2E1
  IC50: > 30 µM
[15]
  Ratio: 2
[16]
  MIC: 1 ng/mL (≈ 0.00255 µM)
[17]
  viability at 72 h, 10 µM: 86%
[18]
  Ratio: 292
[19]
  Papp at 1 µM: 1.7 ×10⁻⁶ cm/s
[20]
  MIC: 0.001 µM (≈ 0.000392 µg/mL)
[21]
  solubility thermodynamic at 24 h: 20 µM (≈ 7.85 µg/mL)
[22]
  MIC: 20 ng/mL (≈ 0.051 µM)
[23]
  Ratio: 100
[24]
  MIC: 0.005 to 0.01 µM (≈ 0.00196 to 0.00392 µg/mL)
[25]
  viability at 72 h, 10 µM: 105%
